Patent publication US20080058211A1, “Method and Composition for the Modulation of Toxin Resistance in Plant Cells” (BOARD OF REGENTS, THE UNIVERSITY OF TEXAS SYSTEM, priority 2006, published 2008)

Columns and labels:
[1] = tested on: ATMEKK1, ATMPK3, ATPK19, ERF2, ERF3, ERF4 and ACS6 genes; details: application of 500 μM; cited from earlier work
LOX2, ACS6, PAL1 = details: cited from earlier work
maize roots = details: concentrations that inhibited gravitropic growth; cited from earlier work
[2] = tested on: [Ca^2+]cyt in excised roots; details: cited from earlier work
Arabidopsis leaves = details: applied into intercellular spaces of leaves; cited from earlier work
root hairs = details: cited from earlier work
roots = details: in vivo; cited from earlier work
[Ca^2+]cyt = dextran-conjugated calcium green as reporter; cited from earlier work
Arabidopsis pollen [3] = details: cited from earlier work
Arabidopsis roots = details: concentrations that inhibited gravitropic growth; cited from earlier work
[4] = tested on: root hairs of Arabidopsis thaliana; details: cited from earlier work
Δ[Ca^2+]cyt = details: co-application with OGA; cited from earlier work
[5] = tested on: Medicago truncatula pollen; assay: in vitro pollen germination (Medicago); format: cell-based
Protocol: To determine if the affects of ATPγS on pollen germination was specific to Arabidopsis or a more generalized phenomenon, Medicago truncatula was also examined.
Strains and Growth Conditions. For the experiments related to the nitric oxide-ATP signaling relationship, all Arabidopsis thaliana plants were ecotype Wassilewskija (WS), and Medicago truncatula plants were strain A17. All of the plants were grown in Metro-Mix 200 soil at 24° C. with constant light. In vitro Pollen Germination. Arabidopsis flowers in stage 12-14 (Smyth et al., 1990) or Medicago truncatula flowers in stage F3 (Firnhaber et al., 2005) were collected and vortexed for 1 min in pollen germination media (PGM) (0.01% boric acid, 1 mM MgSO4, 1 mM CaCl2, 1 mM Ca(NO3)2, 5 mM HEPES, 18% Sucrose pH 7.0). The supernatant containing the pollen was collected by pipet, and up to three rounds of vortexing of the same pollen could be pooled together. The pollen suspended in PGM was then added in 10-12 μL drops to 400 μL PGM+1% agar that had been spread as a thin film across a microscope slide. […] The digital images were scored for the percent of pollen germinated using the AlphaEase software from Alpha Innotech. Pollen with tubes that were shorter than the diameter of the pollen grain were not counted as germinated or non-germinated. […]

Arabidopsis pollen tubes = assay: pollen tube elongation; format: cell-based, Arabidopsis thaliana; details: about 0 to about 250 μM added after tubes had begun to grow
Protocol: Arabidopsis pollen tube elongation is inhibited by ATPγS. As vesicles fuse to deliver membranes to the tip of elongating pollen tubes, ATP is likely to be released. So ATPγS and AMPαS were investigated for their ability to affect pollen tube elongation. After pollen tubes had begun to grow, from about 0 to about 250 μM ATPγS or AMPαS were added and the subsequent growth rate was determined.
Blocking the nitric oxide signaling pathway reverses the inhibition of Arabidopsis elongation by ATPγS. The inhibition of Arabidopsis pollen tube elongation was also mediated via the NO signaling pathway. Pollen tube growth rates were measured in 0.5% DMSO with and without 100 μM ATPγS.
Measurements of pollen tube elongation. Pollen was germinated as described above except 10 μL drops of pollen/PGM suspension were added to 60 μL of PGM+1% agar that had been deposited into a concavity slide. The pollen was allowed to germinate for 1-2 h, so that pollen tubes were clearly visible. Then 90 μL of PGM or PGM containing ATPγS, AMPαS, DMSO or ODQ was added and a photo was taken using a brightfield microscope at 40×. The coordinates of each photo were noted, so that the exact pollen tubes could be photographed 50-60 minutes later. Using Image J, the pollen tube lengths for individual pollen tubes were measured and a growth rate of μm/min was determined.

[6] = tested on: [Ca^2+]cyt in Arabidopsis seedlings; details: Arabidopsis seedlings (Jeter et al., 2004); cited from earlier work
[7] = tested on: nitric oxide levels in elongating Arabidopsis pollen tubes; assay: nitric oxide in elongating pollen tubes, DAF-2D fluorescence; format: cell-based, Arabidopsis thaliana; details: 125 μM
Protocol: Increased extracellular ATPγS increases nitric oxide production in elongating pollen tubes. In addition to using agonists and antagonists to indirectly study the relationship of eATPγS and nitric oxide, direct measurements of increases in nitric oxide after application of ATPγS and AMPαS were examined. Pollen grains have a high level of auto-fluorescence and the nitric oxide levels in elongating Arabidopsis pollen tubes were determined using DAF-2D, a fluorescent marker for the presence of nitric oxide that was dissolved in DMSO. Elongating pollen tubes were treated with DAF-2D alone or with ATPγS or AMPαS.
Measurements of NO in growing pollen tubes treated with ATPγS or AMPαS. Pollen was germinated as described for the pollen elongation measurements. After 1-2 hours when pollen tubes were clearly visible, 90 μL of PGM containing 5 μM 4,5-diaminofluorescein diacetate (DAF-2D, Molecular Probes) with or without ATPγS or AMPαS was added. […] Using Image J, the average fluorescence for the pollen tubes on each slide and each time point were determined. Since background fluorescence for each slide varied, three areas where no pollen tubes were present were averaged and subtracted from the pollen tube averages for each slide. Pollen tubes with and without nucleotides were compared to each other at similar time points to determine if there was a difference in fluorescence.

Arabidopsis pollen [8] = assay: in vitro pollen germination (Arabidopsis); format: cell-based, Arabidopsis thaliana
Protocol: Effects of Extracellular ATPγS and AMPαS on Pollen Germination. Arabidopsis pollen was germinated in pollen germination media (PGM) containing from about zero to about 400 μM ATPγS or AMPαS. […] The method of collection included vortexing flowers in PGM creating a homogenous suspension of pollen from tens to hundreds of flowers. This method caused the release of a small amount of ATP, 2-5 μM into the PGM (data not shown).
The nitric oxide signaling pathway mediates the inhibition of Arabidopsis pollen germination by ATPγS. To examine the downstream effectors involved in the inhibition of Arabidopsis pollen germination by ATPγS, different agonists and antagonists of the known nitric oxide signaling pathway were examined. […] Some of the nitric oxide signaling pathway agonists are water soluble while others are DMSO soluble.
Strains and Growth Conditions. For the experiments related to the nitric oxide-ATP signaling relationship, all Arabidopsis thaliana plants were ecotype Wassilewskija (WS), and Medicago truncatula plants were strain A17. All of the plants were grown in Metro-Mix 200 soil at 24° C. with constant light. In vitro Pollen Germination. Arabidopsis flowers in stage 12-14 (Smyth et al., 1990) or Medicago truncatula flowers in stage F3 (Firnhaber et al., 2005) were collected and vortexed for 1 min in pollen germination media (PGM) (0.01% boric acid, 1 mM MgSO4, 1 mM CaCl2, 1 mM Ca(NO3)2, 5 mM HEPES, 18% Sucrose pH 7.0). The supernatant containing the pollen was collected by pipet, and up to three rounds of vortexing of the same pollen could be pooled together. The pollen suspended in PGM was then added in 10-12 μL drops to 400 μL PGM+1% agar that had been spread as a thin film across a microscope slide. The slides and pollen were then placed into humidity chambers, petri dishes with water saturated kimwipes, and allowed to germinate at 26° C. overnight. Pictures of the germinated pollen were taken with a digital camera attached to a brightfield microscope at 40×. The digital images were scored for the percent of pollen germinated using the AlphaEase software from Alpha Innotech. Pollen with tubes that were shorter than the diameter of the pollen grain were not counted as germinated or non-germinated. The chemicals: ATPγS, AMPαS, N2, 2-O-dibutyrylguanosine 3′:5′-cyclic monophospohate (Dib cGMP), Sildenafil citrate (Viagra™, Pfizer), and 2-(N,N-Diethylamino)-diazenolate 2-oxide (NONOate) were added to the pollen/PGM suspension prior to adding the drops to the PGM+1% agar. The chemicals 1H-[1,2,4]Oxadiazolo[4,3,-a]quinoxalin-1-one (ODQ), N-[4-[1-(3-Aminopropyl)-2-hydroxy-2-nitrosohydrazino]butyl]-1,3-propanediamine (SNAP), and 3-isobutyl-1-methylxanthine (IBMX) were diluted in DMSO and added to the pollen/PGM suspension to a final concentration of DMSO of 0.1%.
For successful pollen germination it was critical for the plants to be healthy and growing in slightly dry soil. To achieve this, the plants were briefly watered 1-2 days before the experiment. As Johnson-Brousseau and McCormick note in their paper (Johnson-Brousseau and McCormick 2004), a solid base is necessary for best in vitro germination of Arabidopsis pollen. The pollen would not germinate in liquid PGM if not overlaid on a solid PGM+1% agar base, and the vortexing and deposition of the pollen/PGM suspension needed to take place in less than 30 minutes or germination rates dropped considerably.

Nc1ncnc2c1ncn2[C@@H]1O[C@H](COP(=O)(O)OP(=O)(O)OP(=O)(O)O)[C@@H](O)[C@H]1O [ATP]
abundance of mRNAs (MAP kinases, ERF2, ERF3, ERF4, ACS6) [1]: induced an increased abundance
message abundance for PAL1 (LOX2, ACS6, PAL1): increased
expression of LOX2 and ACS6 (LOX2, ACS6, PAL1; micromolar concentrations that induced superoxide production): up-regulated
auxin transport (maize roots): inhibited auxin transport
increase in [Ca2+]cyt ([2]; 300 nM ATP, excised roots, 10 mM CaCl2, in less than about 10 seconds): 2 fold
[Ca2+]cyt after treatment ([2]; 1 μM ATP, from ca. 100 nM): over 400 nM
concentration sufficient to induce significant superoxide production (Arabidopsis leaves): 500 nM
increase in root hair growth (root hairs): not
concentration that could inhibit the straight growth of roots (roots): 3 mM
change in [Ca2+]cyt ([Ca^2+]cyt): no change
concentration shown to affect pollen germination (Arabidopsis pollen [3]; Steinenbrunner et al., 2003): 1 to 2 mM
auxin transport (Arabidopsis roots): inhibited auxin transport
induction of membrane depolarization ([4]; applied nucleotide or phosphate): induced large depolarizations
EC50 ([4]; dose-response studies, read-out: half-maximal depolarization): ~400 µM

Nc1ncnc2c1ncn2[C@@H]1O[C@H](COP(=O)(O)OP(=O)(O)OP(O)(O)=S)[C@@H](O)[C@H]1O [ATPγS]
effect on Δ[Ca2+]cyt together with OGA (Δ[Ca^2+]cyt): mutually enhanced
concentration from which pollen germination rates decrease [5]: 200 µM
concentration that significantly inhibited pollen tube elongation (Arabidopsis pollen tubes): more than 150 μM
concentrations needed to induce increases in [Ca2+]cyt [6]: 100 to 200 µM
DAF-2D fluorescence [7]: significantly increased
concentration that could inhibit the straight growth of roots (roots): 0.3 mM
pollen germination (Arabidopsis pollen [3]; wild-type pollen, μM levels): inhibits pollen germination
inhibition of pollen germination (Arabidopsis pollen [8]; 50 μM, 0.1% DMSO): inhibits
inhibition of pollen germination (Arabidopsis pollen [8]; 50 μM, series with water-soluble agonists): not inhibitory
inhibition of pollen germination (Arabidopsis pollen [8]; 100 μM, 0.1% DMSO): does not inhibit
inhibition of pollen germination (Arabidopsis pollen [8]; 100 μM, series with water-soluble agonists): inhibitory
concentration from which the pollen germination rate significantly decreased (Arabidopsis pollen [8]; PGM with about zero to about 400 μM): about 100 μM
concentrations required for the responses of pollen (Arabidopsis pollen [8]; pollen germination and growth): 100 to 200 µM
